Laboratory results from patent US7550459B2, “Tetrahydroquinoline analogues as muscarinic agonists” (Acadia Pharmaceuticals, Inc., priority 2001, dated 2009).
Where two headings read alike, the source gives them in different places.

Experiments:
Format in all cases: cell-based
M2 muscarinic receptor = target: T1, M2 muscarinic receptor (Homo sapiens, UniProt P08172); test: Receptor Selection and Amplification (R-SAT) assay, cloned M2 receptor; design: M2 Eff: scale not given here; conditions: for Emax: read-out: m2 % Efficacy
T1 construct: expressed in transfected cells
T1 sequence (P08172 1-466): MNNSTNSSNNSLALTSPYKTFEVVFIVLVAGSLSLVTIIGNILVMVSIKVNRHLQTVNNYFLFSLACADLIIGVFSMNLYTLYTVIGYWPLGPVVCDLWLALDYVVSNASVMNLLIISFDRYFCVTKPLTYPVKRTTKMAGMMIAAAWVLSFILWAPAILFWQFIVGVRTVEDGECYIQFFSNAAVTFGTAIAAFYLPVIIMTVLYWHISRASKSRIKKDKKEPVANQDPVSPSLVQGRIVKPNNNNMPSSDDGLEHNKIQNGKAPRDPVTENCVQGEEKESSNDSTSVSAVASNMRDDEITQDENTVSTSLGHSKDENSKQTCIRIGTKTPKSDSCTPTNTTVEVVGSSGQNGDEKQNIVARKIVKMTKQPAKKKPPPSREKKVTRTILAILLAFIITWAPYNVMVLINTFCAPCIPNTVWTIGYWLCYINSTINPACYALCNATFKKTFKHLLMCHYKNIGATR
Source text: (§1) The EC50 for an agonist is intended to denote the concentration of a compound needed to achieve 50% of a maximal response seen in an in vitro assay such as R-SAT. For inverse agonists, EC50 is intended to denote the concentration of a compound needed to achieve 50% inhibition of an R-SAT response from basal, no compound, levels.
(§2) A particularly convenient functional assay system is the receptor selection and amplification assay (R-SAT assay) in U.S. Pat. No. 5,707,798, which describes a method of screening for bioactive compounds by utilizing the ability of cells transfected with receptor DNA, e.g., coding for the different muscarinic subtypes, to amplify in the presence of a ligand of the receptor. Cell amplification is detected as increased levels of a marker also expressed by the cells.
(§3) Receptor Selection and Amplification (R-SAT) assays were carried out using the cloned M1-M5 receptors essentially as described in: Brauner-Osborne H, Brann M R. Pharmacology of muscarinic acetylcholine receptor subtypes (m1-m5): high throughput assays in mammalian cells. Eur J Pharmacol Jan. 4, 1996;295(1):93-102, and Spalding T A, Trotter C, Skjaerbaek N, Messier T L, Currier E A, Burstein E S, Li D, Hacksell U, Brann M R. Discovery of an ectopic activation site on the M(1) muscarinic receptor. Mol Pharmacol. 2002 June;61(6):1297-302.

M1 muscarinic receptor = target: T2, M1 muscarinic receptor (Homo sapiens, UniProt P11229); test: Receptor Selection and Amplification (R-SAT) assay, cloned M1 receptor; design: M1 Eff: scale not given here; conditions: for Emax: read-out: m1 % Efficacy
T2 construct: expressed in transfected cells
T2 sequence (P11229 1-460): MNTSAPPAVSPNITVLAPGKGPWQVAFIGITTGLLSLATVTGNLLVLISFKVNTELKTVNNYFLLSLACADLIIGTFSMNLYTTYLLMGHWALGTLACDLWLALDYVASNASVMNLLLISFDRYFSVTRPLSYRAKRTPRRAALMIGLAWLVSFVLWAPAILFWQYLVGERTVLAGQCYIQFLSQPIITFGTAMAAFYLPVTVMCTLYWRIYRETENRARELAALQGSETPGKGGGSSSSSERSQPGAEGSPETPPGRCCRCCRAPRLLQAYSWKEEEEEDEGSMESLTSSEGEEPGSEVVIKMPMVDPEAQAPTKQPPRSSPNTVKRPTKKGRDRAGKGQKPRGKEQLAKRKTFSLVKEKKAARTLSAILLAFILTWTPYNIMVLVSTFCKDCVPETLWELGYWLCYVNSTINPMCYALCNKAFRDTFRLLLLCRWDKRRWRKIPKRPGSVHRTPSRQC
Source text: as §1, §2, §3

M4 muscarinic receptor = target: T3, M4 muscarinic receptor (Homo sapiens, UniProt P08173); test: Receptor Selection and Amplification (R-SAT) assay, cloned M4 receptor; conditions: for Emax: read-out: m4 % Efficacy
T3 construct: expressed in transfected cells
T3 sequence (P08173 1-479): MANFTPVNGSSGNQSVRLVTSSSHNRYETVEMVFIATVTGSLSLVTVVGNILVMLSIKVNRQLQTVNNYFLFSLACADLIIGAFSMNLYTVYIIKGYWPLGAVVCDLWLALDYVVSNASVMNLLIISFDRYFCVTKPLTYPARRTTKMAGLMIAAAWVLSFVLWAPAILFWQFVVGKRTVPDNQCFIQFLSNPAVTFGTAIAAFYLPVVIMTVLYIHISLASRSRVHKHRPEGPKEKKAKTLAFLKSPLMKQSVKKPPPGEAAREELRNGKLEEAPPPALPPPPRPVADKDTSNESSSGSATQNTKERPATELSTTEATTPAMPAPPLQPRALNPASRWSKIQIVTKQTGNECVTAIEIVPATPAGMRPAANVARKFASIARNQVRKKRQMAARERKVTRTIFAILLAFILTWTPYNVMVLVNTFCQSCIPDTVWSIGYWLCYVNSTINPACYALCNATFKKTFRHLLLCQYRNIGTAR
Source text: as §1, §2, §3

[1] = R-SAT, cloned m2 receptor, read-out: m2 pEC50 (converted)
[2] = R-SAT, cloned m1 receptor, read-out: m1 pEC50 (converted)
[3] = R-SAT, cloned m4 receptor, read-out: m4 pEC50 (converted)
[4] = m2 pEC50, R-SAT, cloned m2 receptor
[5] = m1 pEC50, R-SAT, cloned m1 receptor
[6] = R-SAT, second table (COMPOUND ID series)
[7] = R-SAT, second table (COMPOUND ID series), read-out: M2 pEC50 (converted)
[8] = R-SAT, second table (COMPOUND ID series), read-out: M1 pEC50 (converted)
[9] = M2 pEC50, R-SAT, second table (COMPOUND ID series)
[10] = M1 pEC50, R-SAT, second table (COMPOUND ID series)

CCCCC1CCN(CCCN2CCCc3ccccc32)CC1 [Compound 55-LH-12-2, 1-[3-(4-Butyl-piperidin-1-yl)-propyl]-1,2,3,4-tetrahydro-quinoline]
Emax (M2 muscarinic receptor; R-SAT, cloned m2 receptor): 35% | EC50 (M2 muscarinic receptor; [1]): 0.631 µM | Emax (M1 muscarinic receptor; R-SAT, cloned m1 receptor): 72% | EC50 (M1 muscarinic receptor; [2]): 0.0501 µM | Emax (M4 muscarinic receptor; R-SAT, cloned m4 receptor): 68% | EC50 (M4 muscarinic receptor; [3]): 1 µM

CCCCC1CCN(CCCN2c3ccccc3CCC2C)CC1 (stereo not drawn) [Compound 55-LH-28-8, 1-[3-(4-Butyl-piperidin-1-yl)-propyl]-2-methyl-1,2,3,4-tetrahydro-quinoline]
Emax (M2 muscarinic receptor; R-SAT, cloned m2 receptor): 67% | EC50 (M2 muscarinic receptor; [1]): > 3.16 µM | Emax (M1 muscarinic receptor; R-SAT, cloned m1 receptor): 45% | EC50 (M1 muscarinic receptor; [2]): 0.2 µM | Emax (M4 muscarinic receptor; R-SAT, cloned m4 receptor): 64% | EC50 (M4 muscarinic receptor; [3]): > 3.16 µM

CCCCC1CCN(CCCN2CCCc3cc(C)ccc32)CC1 [Compound 55LH44-A, 1-[3-(4-Butyl-piperidin-1-yl)-propyl]-6-methyl-1,2,3,4-tetrahydro-quinoline]
Emax (M1 muscarinic receptor; R-SAT, cloned m1 receptor): 54% | EC50 (M1 muscarinic receptor; [2]): 0.316 µM | Emax (M4 muscarinic receptor; R-SAT, cloned m4 receptor): 28% | EC50 (M4 muscarinic receptor; [3]): > 3.16 µM

CCCCC1CCN(CCCN2CCOc3ccc(C)cc32)CC1 [Compound 64LHY91-6, 4-[3-(4-Butyl-piperidin-1-yl)-propyl]-6-methyl-3,4-dihydro-2H-benzo[1,4]oxazine]
Emax (M2 muscarinic receptor; R-SAT, cloned m2 receptor): 31% | EC50 (M2 muscarinic receptor; [1]): 0.126 µM | Emax (M1 muscarinic receptor; R-SAT, cloned m1 receptor): 86% | EC50 (M1 muscarinic receptor; [2]): 0.0631 µM | Emax (M4 muscarinic receptor; R-SAT, cloned m4 receptor): 52% | EC50 (M4 muscarinic receptor; [3]): 0.251 µM

CCCCC1CCN(CCCN2c3cc(F)ccc3CCC2C)CC1 (stereo not drawn) [Compound 77LH02-1917, 1-[3-(4-Butyl-piperidin-1-yl)-propyl]-7-fluoro-2-methyl-1,2,3,4-tetrahydro-quinoline]
Emax (M1 muscarinic receptor; R-SAT, cloned m1 receptor): 55% | EC50 (M1 muscarinic receptor; [2]): 0.2 µM | Emax (M4 muscarinic receptor; R-SAT, cloned m4 receptor): 37% | EC50 (M4 muscarinic receptor; [3]): > 3.16 µM

CCCCCC1CC2CCC(C1)N2C[C@@H](C)CN1C(=O)CCc2ccccc21 (stereo partly drawn) [Compound 107LH55, (R)-1-[2-Methyl-3-(3-pentyl-8-azabicyclo[3.2.1]oct-8-yl)propyl]-3,4-dihydro-1H-quinolin-2-one]
EC50 (M2 muscarinic receptor; [4]): 0.0316 µM | Emax (M2 muscarinic receptor): 28% | EC50 (M1 muscarinic receptor; [5]): 0.00126 µM | Emax (M1 muscarinic receptor): 103% | EC50 (M4 muscarinic receptor): 0.0501 µM | Emax (M4 muscarinic receptor): 54%

CCCCCC1CC2CCC(C1)N2C[C@@H](C)CN1C(=O)COc2ccccc21 (stereo partly drawn) [Compound 108LM39-36, (R)-4-[2-Methyl-3-(3-pentyl-8-azabicyclo[3.2.1]oct-8-yl)propyl]-4H-benzo[1,4]oxazin-3-one]
EC50 (M2 muscarinic receptor; [4]): 0.00794 µM | Emax (M2 muscarinic receptor): 37% | EC50 (M1 muscarinic receptor; [5]): 0.00158 µM | Emax (M1 muscarinic receptor): 106% | EC50 (M4 muscarinic receptor): 0.02 µM | Emax (M4 muscarinic receptor): 71%

CCCC[C@]1(O)C[C@H]2CC[C@@H](C1)N2C[C@@H](C)CN1C(=O)COc2ccccc21 [Compound 00261478, (R)-4-[3-(3β-Butyl-3a-hydroxy-8-aza-bicyclo[3.2.1]oct-8-yl)-2-methyl-propyl]-1H-benzo[1,4]oxazin-3-one]
M2 Eff (M2 muscarinic receptor; [6]): 40 | EC50 (M2 muscarinic receptor; [7]): 1.26 µM | M1 Eff (M1 muscarinic receptor; [6]): 105 | EC50 (M1 muscarinic receptor; [8]): 1.58 µM

O=C1CCc2cc(F)c(F)cc2N1CCCN1CCC(OCC2CC2)CC1 [Compound 00262272, 1-[3-(4-Cyclopropylmethoxypiperidin-1-yl)propyl]-6,7-difluoro-3,4-dihydro-1H-quinolin-2-one]
M2 Eff (M2 muscarinic receptor; [6]): 57 | EC50 (M2 muscarinic receptor; [7]): 1 µM | M1 Eff (M1 muscarinic receptor; [6]): 94 | EC50 (M1 muscarinic receptor; [8]): 0.0501 µM

O=C1COc2cc(F)c(F)cc2N1CCCN1CCC(OCC2CC2)CC1 [Compound 00262461, 4-[3-(4-Cyclopropylmethoxypiperidin-1-yl)propyl]-6,7-difluoro-4H-benzo[1.4]oxazin-3-one]
M2 Eff (M2 muscarinic receptor; [6]): 61 | EC50 (M2 muscarinic receptor; [7]): 0.631 µM | M1 Eff (M1 muscarinic receptor; [6]): 95 | EC50 (M1 muscarinic receptor; [8]): 0.0501 µM

O=C1COc2cc(F)ccc2N1CCCN1CCC(OCC2CC2)CC1 [Compound 00262469, 4-[3-(4-Cyclopropylmethoxypiperidin-1-yl)propyl]-7-fluoro-4H-benzo[1,4]oxazin-3-one]
M2 Eff (M2 muscarinic receptor; [6]): 73 | EC50 (M2 muscarinic receptor; [7]): 0.501 µM | M1 Eff (M1 muscarinic receptor; [6]): 98 | EC50 (M1 muscarinic receptor; [8]): 0.0631 µM

O=C1COc2cc(F)c(F)cc2N1CCCN1[C@@H]2CC[C@H]1C[C@@H](OCC1CC1)C2 [Compound 00262569, 4-[3-(3a-Cyclopropylmethoxy-8-azabicyclo[3.2.1]oct-8-yl)propyl]-6.7-difluoro-4H-benzo[1.4]oxazin-3-one]
EC50 (M2 muscarinic receptor; [9]): 0.0501 µM | M2 Eff (M2 muscarinic receptor; [6]): 42 | EC50 (M1 muscarinic receptor; [10]): 0.00631 µM | M1 Eff (M1 muscarinic receptor; [6]): 97

O=C1COc2cc(F)ccc2N1CCCN1[C@@H]2CC[C@H]1C[C@@H](OCC1CC1)C2 [Compound 00262571, 4-[3-(3a-Cyclopropylmethoxy-8-azabicyclo[3.2.1]oct-8-yl)propyl]-7-fluoro-4H-benzo[1.4]oxazin-3-one]
EC50 (M2 muscarinic receptor; [9]): 0.0398 µM | M2 Eff (M2 muscarinic receptor; [6]): 45 | EC50 (M1 muscarinic receptor; [10]): 0.0126 µM | M1 Eff (M1 muscarinic receptor; [6]): 81

O=C1CCc2cc(F)c(F)cc2N1CCCN1[C@@H]2CC[C@H]1C[C@@H](OCC1CC1)C2 [Compound 00262572, 1-[3-(3a-Cyclopropylmethoxy-8-aza-bicyclo[3.2.1]oct-8-yl)propyl]-6,7-difluoro-3,4-dihydro-1H-quinolin-2-one]
EC50 (M2 muscarinic receptor; [9]): 0.2 µM | M2 Eff (M2 muscarinic receptor; [6]): 31 | EC50 (M1 muscarinic receptor; [10]): 0.01 µM | M1 Eff (M1 muscarinic receptor; [6]): 82

O=C1COc2ccc(F)cc2N1CCCN1CCC(OCC2CC2)CC1 [Compound 00262635, 4-[3-(4-Cyclopropylmethoxypiperidin-1-yl)propyl]-6-fluoro-4H-benzo[1.4]oxazin-3-one]
M2 Eff (M2 muscarinic receptor; [6]): 53 | EC50 (M2 muscarinic receptor; [7]): 0.794 µM | M1 Eff (M1 muscarinic receptor; [6]): 96 | EC50 (M1 muscarinic receptor; [8]): 0.0631 µM

O=C1COc2ccccc2N1CCCN1CCC(OCC2CC2)CC1 [Compound 00262922, 4-[3-(4-Cyclopropylmethoxypiperidin-1-yl)propyl]-4H-benzo[1.4]oxazin-3-one]
M2 Eff (M2 muscarinic receptor; [6]): 40 | EC50 (M2 muscarinic receptor; [7]): 1.26 µM | M1 Eff (M1 muscarinic receptor; [6]): 84 | EC50 (M1 muscarinic receptor; [8]): 0.0794 µM

COCCC1CC2CCC(C1)N2CC(C)CN1C(=O)COc2ccccc21 [Compound 00263025, (R)-4-{3-[3a-(2-Methoxyethyl)-8-azabicyclo[3.2.1]oct-8-yl]-2-methylpropyl}-4H-benzo[1.4]oxazin-3-one]
EC50 (M2 muscarinic receptor; [9]): 0.158 µM | M2 Eff (M2 muscarinic receptor; [6]): 123 | EC50 (M1 muscarinic receptor; [10]): 0.00316 µM | M1 Eff (M1 muscarinic receptor; [6]): 116
